Test system: Saccharomyces cerevisiae
Test: Antimicrobial activity against Saccharomyces cerevisiae
Assay type: functional

Row | Molecule | MIC [µg/mL]
1 | COC1=C(OC)C(=O)C([C@@H]2COc3cc(OC)ccc3C2)=CC1=O [COLUTEQUINONE A] | < 50
2 | COC1=CC(=O)C([C@@H]2COc3cc(OC)ccc3C2)=C(OC)C1=O [COLUTEQUINONE B] | < 50
3 | COc1ccc2c(c1)OC[C@@H](c1cc(O)c(OC)c(O)c1OC)C2 [R-COLUTEOL] | < 100
4 | NYSTATIN | < 5

Reference: ChEMBL document CHEMBL1141741, “Coluteol and Colutequinone B, More Antifungal Isoflavonoids from Colutea arborescens” (1998)
